As a reminder, the IC50 is the concentration needed to halve the response being measured. The term pIC50 denotes −log10 of the IC50, conventionally taken in molar units. A word on the inhibition: it is the change of the read-out against control, counted positive when it falls.

The text below walks through data of PubChem BioAssay AID624129 (Sanford-Burnham Center for Chemical Genomics, 2012).

Assay in all cases: CXCR6 receptor antagonists, dose response, cell-based, beta-arrestin, DiscoveRx, APJ panel, uHTS hits (AID 624129)
Assay [1] deals with Apelin receptor (Homo sapiens) (UniProt P35414). As to conditions: CXCR6 beta-arrestin (DiscoveRx) antagonist cell assay, APJ.
Assay [2] has as its target Beta-galactosidase (Escherichia coli) (UniProt Q8VNN2). As to conditions: CXCR6 beta-arrestin (DiscoveRx) antagonist cell assay, b-galactosidase; for IC50: dose range 1; for pIC50: dose range 1, mean IC50 across replicates.
For assay [3], the target named is C-C chemokine receptor type 6 (Homo sapiens) (UniProt P51684). As to conditions: CXCR6 beta-arrestin (DiscoveRx) antagonist cell assay.
The target in assay [4] is C-X-C chemokine receptor type 6 (Homo sapiens) (UniProt O00574). As to conditions: CXCR6 beta-arrestin (DiscoveRx) antagonist cell assay; for inhibition: CXCR6, run 1, dose range 2, at 80 µM (top of the series).
Sequence of C-X-C chemokine receptor type 6 (Homo sapiens) (O00574 whole entry, looked up): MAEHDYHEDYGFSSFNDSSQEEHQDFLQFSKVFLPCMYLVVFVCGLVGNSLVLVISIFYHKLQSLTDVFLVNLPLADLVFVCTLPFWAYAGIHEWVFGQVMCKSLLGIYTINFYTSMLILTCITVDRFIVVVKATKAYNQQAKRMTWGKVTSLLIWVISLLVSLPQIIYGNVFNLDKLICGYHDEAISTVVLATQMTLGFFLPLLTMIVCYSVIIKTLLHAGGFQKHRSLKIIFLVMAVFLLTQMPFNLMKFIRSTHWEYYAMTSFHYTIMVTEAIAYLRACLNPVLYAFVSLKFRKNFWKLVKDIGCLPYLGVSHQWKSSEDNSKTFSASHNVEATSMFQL
Where [5] appears, read: dose range 1, mean IC50 across replicates.
Setting [6] is: CCR6, dose range 1, mean IC50 across replicates.
The mark [7] stands for this setting: CXCR6, dose range 1, mean IC50 across replicates.

The structures appear in SMILES notation. pIC50: −log10 of the molar value. Calls of active or inactive are those of the source. The rule behind the calls is not given here.

Sequence of Beta-galactosidase (Escherichia coli) (Q8VNN2 whole entry, looked up): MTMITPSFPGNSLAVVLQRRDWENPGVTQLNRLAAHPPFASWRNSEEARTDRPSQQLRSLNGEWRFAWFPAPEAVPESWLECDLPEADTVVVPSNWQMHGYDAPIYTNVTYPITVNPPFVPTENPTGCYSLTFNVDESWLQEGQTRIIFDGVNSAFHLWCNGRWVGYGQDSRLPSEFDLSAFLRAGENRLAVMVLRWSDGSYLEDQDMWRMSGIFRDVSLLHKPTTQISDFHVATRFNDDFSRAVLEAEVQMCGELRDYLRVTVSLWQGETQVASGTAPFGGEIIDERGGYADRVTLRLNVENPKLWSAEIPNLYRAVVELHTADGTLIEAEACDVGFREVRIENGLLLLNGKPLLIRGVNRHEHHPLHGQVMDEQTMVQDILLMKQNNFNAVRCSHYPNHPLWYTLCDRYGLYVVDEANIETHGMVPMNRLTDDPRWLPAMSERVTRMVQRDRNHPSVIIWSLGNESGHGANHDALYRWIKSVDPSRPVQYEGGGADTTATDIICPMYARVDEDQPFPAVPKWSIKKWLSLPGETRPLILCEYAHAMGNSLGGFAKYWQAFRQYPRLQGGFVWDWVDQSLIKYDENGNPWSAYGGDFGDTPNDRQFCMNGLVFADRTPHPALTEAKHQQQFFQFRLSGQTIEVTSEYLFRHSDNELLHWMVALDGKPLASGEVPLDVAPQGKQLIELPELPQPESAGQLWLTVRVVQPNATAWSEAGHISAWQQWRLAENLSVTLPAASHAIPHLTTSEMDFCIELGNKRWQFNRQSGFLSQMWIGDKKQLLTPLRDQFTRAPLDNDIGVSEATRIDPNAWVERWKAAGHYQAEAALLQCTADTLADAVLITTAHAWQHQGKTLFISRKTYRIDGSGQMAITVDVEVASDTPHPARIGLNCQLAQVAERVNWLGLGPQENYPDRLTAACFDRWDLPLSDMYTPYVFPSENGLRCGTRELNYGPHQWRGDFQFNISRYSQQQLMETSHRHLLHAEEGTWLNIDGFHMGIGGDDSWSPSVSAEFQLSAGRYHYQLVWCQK

On to `CC(=O)OCCCNc1cc(Sc2nc3ccccc3s2)c2nonc2c1[N+](=O)[O-]`, for which the IC50 in assay [1] (dose range 1) and in assay [2] was > 80 µM (inactive) throughout. The pIC50 in assay [1] (setting [5]) was less than 4.10; in assay [1] (run 2, dose range 1), less than 4.10; in assay [1] (run 3, dose range 1), less than 4.10; in assay [2], less than 4.10; in assay [3] (CCR6, dose range 1) it was 5.20; in assay [3] (setting [6]) it was 4.52. For the same compound, the pIC50 in assay [3] (CCR6, run 2, dose range 1) is 4.27; in assay [4] (setting [7]) it was 5.06; in assay [4] (CXCR6, run 1, dose range 2), 5.09; in assay [4] (CXCR6, run 2, dose range 1) it was less than 4.10; in assay [4] (CXCR6, run 2, dose range 2) it was 5.03.

Turning to `Cc1c(CCCl)c(Cl)n2c(nc3ccccc32)c1C#N`, the IC50 in assay [1] (dose range 1) and in assay [2] was > 80 µM (inactive) in each case. In addition, the pIC50 in assay [1] (setting [5]) was less than 4.10; in assay [1] (run 2, dose range 1), less than 4.10; in assay [1] (run 3, dose range 1), less than 4.10; in assay [2] it was less than 4.10; in assay [3] (setting [6]), 4.38; in assay [3] (CCR6, run 2, dose range 1), 4.29. Moreover, the pIC50 is 5.20 in assay [4] (setting [7]); 5.24 in assay [4] (CXCR6, run 1, dose range 2); less than 4.10 in assay [4] (CXCR6, run 2, dose range 1); 5.15 in assay [4] (CXCR6, run 2, dose range 2). Moreover, the IC50 result in assay [3] (CCR6, dose range 1) is “inactive”.

Turning to `Cc1cccc(C)c1NC(=O)c1nc(S(=O)(=O)Cc2ccccc2)ncc1Cl`, the pIC50 is less than 4.10 in assay [1] (setting [5]); less than 4.10 in assay [1] (run 2, dose range 1); less than 4.10 in assay [1] (run 3, dose range 1); less than 4.10 in assay [2]; less than 4.10 in assay [3] (setting [6]); less than 4.10 in assay [3] (CCR6, run 2, dose range 1). Further, the pIC50 in assay [4] (setting [7]) was less than 4.10; in assay [4] (CXCR6, run 2, dose range 1), less than 4.10. The IC50 in assay [2] is > 80 µM (inactive); in assay [4] (CXCR6, dose range 1), > 80 µM (inactive). In addition, the inhibition in assay [4] is -9.6%.

On to `CCOc1ccc(NC(=O)CN(C)S(=O)(=O)c2cccs2)cc1`, for which the pIC50 in assay [1] (setting [5]) was less than 4.10; in assay [1] (run 2, dose range 1), less than 4.10; in assay [1] (run 3, dose range 1), less than 4.10; in assay [2] it was less than 4.10; in assay [3] (setting [6]) it was less than 4.10; in assay [3] (CCR6, run 2, dose range 1), less than 4.10. Moreover, the pIC50 in assay [4] (setting [7]) is less than 4.10; in assay [4] (CXCR6, run 2, dose range 1), less than 4.10. Also, the IC50 in assay [2] was > 80 µM (inactive); in assay [4] (CXCR6, dose range 1), > 80 µM (inactive). Further, the inhibition in assay [4] is -28%.

Turning to `N#CC(C#N)=C1C=CC=CN1/C(=C\c1ccccc1Cl)C(=O)c1ccccc1`, the pIC50 in assay [1] (dose range 1) is 4.84; in assay [1] (setting [5]), 4.84; in assay [1] (run 2, dose range 1) it was 4.93; in assay [1] (run 3, dose range 1) it was 4.76; in assay [2], less than 4.10; in assay [3] (CCR6, dose range 1) it was 5.11. Besides, the pIC50 is 5.17 in assay [3] (setting [6]); 5.24 in assay [3] (CCR6, run 2, dose range 1); 5.11 in assay [4] (CXCR6, dose range 1); 5.04 in assay [4] (setting [7]); 5.01 in assay [4] (CXCR6, run 1, dose range 2); 5.10 in assay [4] (CXCR6, run 2, dose range 1). This compound had a pIC50 in assay [4] (CXCR6, run 2, dose range 2) of 4.96. Besides, in assay [2], the IC50 is > 80 µM (inactive).

On to `CC(Oc1ccc(Br)cc1)C(=O)Nc1nc(-c2ccccn2)cs1` (stereo not given), for which the pIC50 in assay [1] (dose range 1) is 5.16; in assay [1] (setting [5]) it was 5.23; in assay [1] (run 2, dose range 1), 5.25; in assay [1] (run 3, dose range 1), 5.28; in assay [2], less than 4.10; in assay [3] (CCR6, dose range 1), 5.26. In addition, the pIC50 is 5.18 in assay [3] (setting [6]); 5.11 in assay [3] (CCR6, run 2, dose range 1); 5.17 in assay [4] (CXCR6, dose range 1); 5.26 in assay [4] (setting [7]); 5.37 in assay [4] (CXCR6, run 1, dose range 2); 5.21 in assay [4] (CXCR6, run 2, dose range 1). This compound had a pIC50 in assay [4] (CXCR6, run 2, dose range 2) of 5.31. Also, the IC50 in assay [2] is > 80 µM (inactive).

Regarding `COc1ccc(CCN2C(=O)C=CC2=O)cc1OC`, the pIC50 in assay [1] (dose range 1) is 5.02; in assay [1] (setting [5]), 4.68; in assay [1] (run 2, dose range 1), 5.05; in assay [1] (run 3, dose range 1), 4.35; in assay [2], less than 4.10; in assay [3] (CCR6, dose range 1), 5.31. Besides, the negative-log IC50 (pIC50) in assay [3] (setting [6]) is 5.20; in assay [3] (CCR6, run 2, dose range 1) it was 5.11; in assay [4] (CXCR6, dose range 1), 5.03; in assay [4] (setting [7]), 5.08; in assay [4] (CXCR6, run 2, dose range 1), 5.13. The IC50 in assay [2] was > 80 µM (inactive). Also, the inhibition in assay [4] stood at 122%.

As to `O=[N+]([O-])c1ccc(S(=O)Cc2ccccc2)c([N+](=O)[O-])c1` (stereo not given), the pIC50 in assay [1] (setting [5]) was less than 4.10; in assay [1] (run 2, dose range 1) it was less than 4.10; in assay [1] (run 3, dose range 1) it was less than 4.10; in assay [2] it was less than 4.10; in assay [3] (setting [6]), less than 4.10; in assay [3] (CCR6, run 2, dose range 1) it was less than 4.10. For the same compound, the negative logarithm of the IC50 (pIC50) in assay [4] (setting [7]) is less than 4.10; in assay [4] (CXCR6, run 2, dose range 1), less than 4.10. Also, the IC50 is > 80 µM (inactive) in assay [2] and > 80 µM (inactive) in assay [4] (CXCR6, dose range 1). For the same compound, the inhibition in assay [4] was -36.3%.
